Assays:
Test in all cases: Bliss excess, mean over the matrix (fraction); higher = more synergy
[1] = tested on: CGTH-W-1 (Thyroid Gland Carcinoma)
In short: (§1)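 Cell lines grown in DMEM/F12 or RPMI with 10% FBS were plated in 1536-well plates and held 24 hours at 37°C, 5% CO2 before 72 hours of exposure to two-drug dose matrices, with DMSO typically at 0.2%. CellTiter-Glo 2.0 luminescence gave viability, which was converted to inhibition. Vehicle wells were set to 0 and blank wells to 1. Combination Emax is the second-highest inhibition in the matrix, and Bliss excess is the observed combination effect minus the expected EA + EB − EA·EB, where EA and EB are the single-agent effects.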

IM-9 (Non-Cancerous) = tested on: IM-9 (Non-Cancerous)
In short: as §1

NB13 (Neuroblastoma) = tested on: NB13 (Neuroblastoma)
In short: as §1

[2] = tested on: huH-1 (Hepatocellular Carcinoma)
In short: as §1

[3] = tested on: HT55 (Colorectal Carcinoma)
In short: as §1

AU565 (Breast Carcinoma) = tested on: AU565 (Breast Carcinoma)
In short: as §1

[4] = tested on: SK-HEP-1 (Hepatocellular Carcinoma)
In short: as §1

[5] = tested on: NCI-H716 (Colorectal Carcinoma)
In short: as §1

EB2 (Burkitt's Lymphoma) = tested on: EB2 (Burkitt's Lymphoma)
In short: as §1

[6] = tested on: GCT (Other Solid Carcinomas)
In short: as §1

A101D (Melanoma) = tested on: A101D (Melanoma)
In short: as §1

COLO-792 (Melanoma) = tested on: COLO-792 (Melanoma)
In short: as §1

EW-16 (Ewing's Sarcoma) = tested on: EW-16 (Ewing's Sarcoma)
In short: as §1

[7] = tested on: NCI-H1703 (Squamous Cell Lung Carcinoma)
In short: as §1

[8] = tested on: KYSE-140 (Esophageal Squamous Cell Carcinoma)
In short: as §1

[9] = tested on: LU-165 (Small Cell Lung Carcinoma)
In short: as §1

[10] = tested on: JVM-2 (B-Cell Non-Hodgkin's Lymphoma)
In short: as §1

[11] = tested on: MDA-MB-436 (Breast Carcinoma)
In short: as §1

5637 (Bladder Carcinoma) = tested on: 5637 (Bladder Carcinoma)
In short: as §1

[12] = tested on: DU-4475 (Breast Carcinoma)
In short: as §1

Row | Compound | Bliss excess [1] | Bliss excess (IM-9 (Non-Cancerous)) | Bliss excess (NB13 (Neuroblastoma)) | Bliss excess [2] | Bliss excess [3] | Bliss excess (AU565 (Breast Carcinoma)) | Bliss excess [4] | Bliss excess [5] | Bliss excess (EB2 (Burkitt's Lymphoma)) | Bliss excess [6] | Bliss excess (A101D (Melanoma)) | Bliss excess (COLO-792 (Melanoma)) | Bliss excess (EW-16 (Ewing's Sarcoma)) | Bliss excess [7] | Bliss excess [8] | Bliss excess [9] | Bliss excess [10] | Bliss excess [11] | Bliss excess (5637 (Bladder Carcinoma)) | Bliss excess [12]
1 | CCN(CCO)CCCOc1ccc2c(Nc3cc(CC(=O)Nc4cccc(F)c4)[nH]n3)ncnc2c1 [AZD2811] + O=C(c1cc(Cc2n[nH]c(=O)c3ccccc23)ccc1F)N1CCN(C(=O)C2CC2)CC1 [Olaparib] (first compound max 1 µM, 7x7, partner max 10 µM) | 0.008 | -0.0191 | 0.0211 | -0.0014 | 0.0248 | -0.011 | -0.0121 | 0.0047 | 0.0141 | 0.0585 | -0.0005 | -0.0187 | 0.0661 | 0.0062 | 0.0429 | -0.0454 | -0.125 | -0.0533 | -0.0349 | 0.0213
2 | COc1nnc2ccc(N3CCC(c4ccc(OCCN5CCN(C)C(=O)[C@H]5C)cc4)CC3)nn12 [AZD5153] + C=CCn1c(=O)c2cnc(Nc3ccc(N4CCN(C)CC4)cc3)nc2n1-c1cccc(C(C)(C)O)n1 [AZD1775] (first compound max 1 µM, partner max 1 µM) | 0.0137 | -0.107 | -0.0645 | 0.024 | -0.0112 | -0.0144 | -0.0166 | -0.0734 | -0.135 | 0.0168 | -0.0825 | 0.0823 | -0.037 | 0.0052 | -0.0161 | 0.0026 | -0.0959 | -0.0783 | -0.0321 | 0.0311
3 | COc1nnc2ccc(N3CCC(c4ccc(OCCN5CCN(C)C(=O)[C@H]5C)cc4)CC3)nn12 [AZD5153] + CC1(C)CCC(CN2CCN(c3ccc(C(=O)NS(=O)(=O)c4ccc(NCC5CCOCC5)c([N+](=O)[O-])c4)c(Oc4cnc5[nH]ccc5c4)c3)CC2)=C(c2ccc(Cl)cc2)C1 [Venetoclax] (first compound max 1 µM, 7x7, partner max 1 µM) | -0.0407 | 0.0394 | -0.137 | -0.0962 | -0.0387 | 0.0002 | -0.0153 | -0.0035 | -0.0677 | -0.107 | -0.0731 | -0.0162 | -0.0593 | -0.0404 | -0.0597 | -0.0522 | -0.0081 | -0.0572 | -0.0407 | 0.0181
4 | COc1nnc2ccc(N3CCC(c4ccc(OCCN5CCN(C)C(=O)[C@H]5C)cc4)CC3)nn12 [AZD5153] + CCN(CCO)CCCOc1ccc2c(Nc3cc(CC(=O)Nc4cccc(F)c4)[nH]n3)ncnc2c1 [AZD2811] (first compound max 1 µM, 7x7, partner max 1 µM) | 0.0228 | -0.111 | -0.0336 | 0.0201 | -0.0479 | -0.0016 | -0.103 | -0.0316 | -0.102 | -0.0201 | -0.104 | -0.0406 | 0.0068 | -0.038 | -0.0087 | -0.06 | -0.0498 | -0.0214 | -0.107 | 0.0934
5 | COc1nnc2ccc(N3CCC(c4ccc(OCCN5CCN(C)C(=O)[C@H]5C)cc4)CC3)nn12 [AZD5153] + C[C@@H]1COCCN1C2=NC(=NC(=C2)C3(CC3)[S@](=N)(=O)C)C4=C5C=CNC5=NC=C4 [AZD6738] (first compound max 1 µM, 7x7, partner max 10 µM) | 0.0604 | -0.0697 | -0.0149 | 0.031 | 0.0392 | 0.009 | -0.0522 | -0.0312 | -0.0996 | 0.029 | -0.0186 | 0.0774 | 0.0667 | 0.02 | -0.0968 | -0.0048 | -0.061 | -0.0104 | -0.0001 | 0.0294
6 | COc1nnc2ccc(N3CCC(c4ccc(OCCN5CCN(C)C(=O)[C@H]5C)cc4)CC3)nn12 [AZD5153] + Cc1c2c(nn1C)CSCc1cc(n(C)n1)CSc1cc(c3ccccc3c1)OCCCc1c(C(=O)O)n(C)c3c-2c(Cl)ccc13 [AZD5991] (first compound max 1 µM, 7x7, partner max 1 µM) | -0.025 | -0.127 | 0.0066 | 0.0196 | -0.0445 | -0.0342 | -0.085 | 0.0076 | -0.0614 | -0.0425 | 0.0406 | 0.0196 | -0.0412 | -0.0186 | -0.124 | -0.0173 | -0.0404 | -0.0167 | -0.0555 | 0.0617
7 | COc1nnc2ccc(N3CCC(c4ccc(OCCN5CCN(C)C(=O)[C@H]5C)cc4)CC3)nn12 [AZD5153] + Cn1cnc2c(F)c(Nc3ccc(Br)cc3Cl)c(C(=O)NOCCO)cc21 [Selumetinib] (first compound max 1 µM, 7x7, partner max 10 µM) | -0.0059 | 0.0322 | -0.0616 | -0.0102 | 0.0584 | 0.0278 | -0.0764 | 0.016 | -0.0216 | -0.0506 | -0.081 | -0.055 | -0.0456 | -0.0065 | -0.028 | -0.0494 | 0.0655 | -0.0275 | 0.0132 | 0.0219
8 | Cc1c2c(nn1C)CSCc1cc(n(C)n1)CSc1cc(c3ccccc3c1)OCCCc1c(C(=O)O)n(C)c3c-2c(Cl)ccc13 [AZD5991] + C1CN(CCC1(C(=O)N[C@@H](CCO)C2=CC=C(C=C2)Cl)N)C3=NC=NC4=C3C=CN4 [Capivasertib] (first compound max 1 µM, 7x7, partner max 3 µM) | 0.0091 | -0.0616 | 0.0719 | -0.0149 | -0.0129 | 0.0218 | 0.0194 | 0.0001 | -0.0375 | -0.0219 | 0.0252 | 0.0076 | -0.0456 | 0.0157 | 0.0196 | 0.0034 | 0.0245 | -0.0204 | -0.004 | -0.0023
9 | Cc1c2c(nn1C)CSCc1cc(n(C)n1)CSc1cc(c3ccccc3c1)OCCCc1c(C(=O)O)n(C)c3c-2c(Cl)ccc13 [AZD5991] + CC1(C)CCC(CN2CCN(c3ccc(C(=O)NS(=O)(=O)c4ccc(NCC5CCOCC5)c([N+](=O)[O-])c4)c(Oc4cnc5[nH]ccc5c4)c3)CC2)=C(c2ccc(Cl)cc2)C1 [Venetoclax] (first compound max 1 µM, 7x7, partner max 1 µM) | -0.012 | 0.218 | 0.0393 | -0.0534 | -0.0244 | 0.0115 | -0.0098 | -0.0436 | 0.0144 | -0.0272 | 0.0076 | 0.0312 | -0.0326 | 0.0049 | 0.0154 | -0.014 | 0.0109 | -0.0513 | -0.0474 | 0.0375
10 | Cc1c2c(nn1C)CSCc1cc(n(C)n1)CSc1cc(c3ccccc3c1)OCCCc1c(C(=O)O)n(C)c3c-2c(Cl)ccc13 [AZD5991] + CCN(CCO)CCCOc1ccc2c(Nc3cc(CC(=O)Nc4cccc(F)c4)[nH]n3)ncnc2c1 [AZD2811] (first compound max 1 µM, 7x7, partner max 1 µM) | 0.0439 | -0.0112 | 0.131 | 0.024 | 0.0472 | 0.0367 | 0.0084 | -0.0013 | 0.0391 | 0.0106 | -0.0169 | -0.0095 | 0.117 | 0.0139 | 0.0169 | -0.025 | 0.032 | -0.0406 | 0.0103 | 0.075
11 | Cc1c2c(nn1C)CSCc1cc(n(C)n1)CSc1cc(c3ccccc3c1)OCCCc1c(C(=O)O)n(C)c3c-2c(Cl)ccc13 [AZD5991] + CN(C)CCCOc1ccc(-c2ccc3ncc4c(c3c2)n(C2CCOCC2)c(=O)n4C)cn1 [AZD0156] (first compound max 1 µM, 7x7, partner max 1 µM) | -0.0151 | -0.0637 | 0.0007 | -0.0069 | 0.0318 | 0.0204 | 0.0098 | 0.0233 | -0.0423 | 0.0338 | -0.0801 | 0.0191 | -0.0014 | -0.0272 | -0.0063 | 0.0147 | -0.0266 | -0.0369 | -0.0014 | -0.0262
12 | Cc1c2c(nn1C)CSCc1cc(n(C)n1)CSc1cc(c3ccccc3c1)OCCCc1c(C(=O)O)n(C)c3c-2c(Cl)ccc13 [AZD5991] + C[C@@H]1COCCN1C2=NC(=NC(=C2)C3(CC3)[S@](=N)(=O)C)C4=C5C=CNC5=NC=C4 [AZD6738] (first compound max 1 µM, 7x7, partner max 10 µM) | 0.0117 | -0.0532 | 0.012 | -0.0302 | 0.0901 | 0.0006 | 0.0225 | 0.0138 | -0.0097 | 0.06 | 0.0342 | 0.0026 | -0.0304 | -0.0108 | 0.0119 | 0.0012 | -0.0128 | -0.0031 | 0.0305 | 0.0233
13 | Cc1c2c(nn1C)CSCc1cc(n(C)n1)CSc1cc(c3ccccc3c1)OCCCc1c(C(=O)O)n(C)c3c-2c(Cl)ccc13 [AZD5991] + C[C@@H](Nc1cc(F)cc(F)c1)c1cc(C(=O)N(C)C)cc2c(=O)cc(N3CCOCC3)oc12 [AZD8186] (first compound max 1 µM, 7x7, partner max 3 µM) | -0.0348 | -0.0376 | 0.0039 | -0.0024 | -0.0305 | 0.0418 | 0.0175 | -0.0335 | 0.0282 | -0.0351 | -0.0318 | 0.0218 | -0.0571 | -0.0012 | -0.0439 | -0.0238 | 0.0024 | -0.0139 | -0.036 | -0.0249
14 | Cc1c2c(nn1C)CSCc1cc(n(C)n1)CSc1cc(c3ccccc3c1)OCCCc1c(C(=O)O)n(C)c3c-2c(Cl)ccc13 [AZD5991] + Cc1cc2ncnn2cc1Nc1ncc2c(n1)n(C1CCOCC1)c(=O)n2C [AZD7648] (first compound max 1 µM, 7x7, partner max 10 µM) | -0.0214 | 0.014 | 0.0153 | -0.0224 | -0.0152 | -0.0172 | -0.0463 | -0.0646 | 0.0285 | -0.0702 | -0.0897 | 0.0234 | -0.0174 | 0.0168 | -0.0345 | 0.0045 | -0.046 | -0.042 | -0.0232 | 0.0811

— the supplement of paper PMC11061612
